# Results taken from patent publication US20260138961A1, “MODULATORS OF MITOCHONDRIAL DNA REPLICATION” (Pretzel Therapeutics, Inc., priority 2022, published 2026).
# Biological target: T1, POLγA:G848S (Homo sapiens, UniProt P54098, G848S)
# T1 sequence (P54098 1-1239 G848S): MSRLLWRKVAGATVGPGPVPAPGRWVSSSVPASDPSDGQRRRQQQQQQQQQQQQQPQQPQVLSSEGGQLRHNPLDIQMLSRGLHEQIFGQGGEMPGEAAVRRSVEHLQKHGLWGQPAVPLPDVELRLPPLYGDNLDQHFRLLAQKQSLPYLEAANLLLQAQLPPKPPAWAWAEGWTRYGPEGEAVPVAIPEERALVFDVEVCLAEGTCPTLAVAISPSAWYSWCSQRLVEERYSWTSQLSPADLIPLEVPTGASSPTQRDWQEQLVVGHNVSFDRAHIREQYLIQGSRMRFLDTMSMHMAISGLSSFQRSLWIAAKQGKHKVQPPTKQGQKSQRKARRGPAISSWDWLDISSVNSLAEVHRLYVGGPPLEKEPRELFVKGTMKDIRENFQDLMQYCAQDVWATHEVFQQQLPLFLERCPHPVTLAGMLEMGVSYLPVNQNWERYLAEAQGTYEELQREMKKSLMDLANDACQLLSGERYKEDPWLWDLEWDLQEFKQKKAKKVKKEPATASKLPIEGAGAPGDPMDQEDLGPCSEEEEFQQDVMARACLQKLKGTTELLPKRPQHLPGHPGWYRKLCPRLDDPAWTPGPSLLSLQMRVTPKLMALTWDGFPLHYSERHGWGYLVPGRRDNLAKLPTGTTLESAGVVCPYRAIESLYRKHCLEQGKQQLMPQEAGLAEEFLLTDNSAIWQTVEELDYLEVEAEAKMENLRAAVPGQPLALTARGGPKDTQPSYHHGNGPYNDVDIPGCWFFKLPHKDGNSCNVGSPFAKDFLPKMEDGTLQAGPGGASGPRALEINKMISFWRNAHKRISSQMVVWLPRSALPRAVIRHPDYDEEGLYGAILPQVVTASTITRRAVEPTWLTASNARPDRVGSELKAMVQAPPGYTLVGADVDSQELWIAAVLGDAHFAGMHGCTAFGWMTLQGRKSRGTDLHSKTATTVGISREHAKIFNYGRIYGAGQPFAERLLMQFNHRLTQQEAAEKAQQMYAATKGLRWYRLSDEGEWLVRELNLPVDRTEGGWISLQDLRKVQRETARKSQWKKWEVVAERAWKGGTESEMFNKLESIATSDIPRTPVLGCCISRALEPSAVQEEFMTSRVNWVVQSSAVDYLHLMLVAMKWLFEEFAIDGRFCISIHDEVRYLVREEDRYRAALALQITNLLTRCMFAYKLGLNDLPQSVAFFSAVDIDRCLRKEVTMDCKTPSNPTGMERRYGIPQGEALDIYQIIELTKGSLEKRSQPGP
# T1 sequence (Q9UHN1 1-485 partner): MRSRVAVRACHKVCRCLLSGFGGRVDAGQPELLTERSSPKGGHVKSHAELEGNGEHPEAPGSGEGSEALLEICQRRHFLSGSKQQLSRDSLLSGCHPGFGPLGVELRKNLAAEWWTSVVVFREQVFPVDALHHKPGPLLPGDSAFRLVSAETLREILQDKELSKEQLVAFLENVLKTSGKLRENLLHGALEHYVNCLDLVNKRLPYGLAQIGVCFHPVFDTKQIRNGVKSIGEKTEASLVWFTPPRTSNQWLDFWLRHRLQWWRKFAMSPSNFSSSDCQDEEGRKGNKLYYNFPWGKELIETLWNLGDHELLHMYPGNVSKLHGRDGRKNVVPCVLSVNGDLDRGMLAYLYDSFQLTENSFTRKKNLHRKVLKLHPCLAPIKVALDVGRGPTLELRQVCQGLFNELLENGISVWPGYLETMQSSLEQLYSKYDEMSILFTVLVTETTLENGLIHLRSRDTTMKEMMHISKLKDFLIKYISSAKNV
# Test: DNA polymerization assay, POLγA:G848S mutant
# Format: biochemical
# Conditions: stimulation of polymerase activity, primed M13mp18 ssDNA, 37° C. 2 hours; read-out: G848S AC50
row,AC50 [µM],Structure (SMILES)
1,31,"Cc1cc(S(=O)(=O)N[C@H]2CCCN(c3ccccc3)C2)c(C)cc1Cl [Example 161, (S)-4-chloro-2,5-dimethyl-N-(1-phenylpiperidin-3-yl)benzenesulfonamide]"
2,39,"COCCNC(=O)c1cccc(NS(=O)(=O)c2cc(C)c(Cl)cc2C)c1 [Example 47, 3-((4-chloro-2,5-dimethylphenyl)sulfonamido)-N-(2-methoxyethyl)benzamide]"
3,13,"Cc1cc(S(=O)(=O)Nc2cccc(C(=O)N3CCCC34CC4)c2)c(C)cc1Cl [Example 162, N-(3-(4-azaspiro[2.4]heptane-4-carbonyl)phenyl)-4-chloro-2,5-dimethylbenzenesulfonamide]"
4,> 100,"Cc1ccc(C)c(S(=O)(=O)Nc2cccc(C(=O)N3CCSCC3)c2)c1 [Example 24, 2,5-dimethyl-N-(3-(thiomorpholine-4-carbonyl)phenyl)benzenesulfonamide]"
5,14,"Cc1cc(S(=O)(=O)Nc2ccc3ccn(C(C)C)c3c2)c(C)cc1Cl [Example 69, 4-chloro-N-(1-isopropyl-1H-indol-6-yl)-2,5-dimethylbenzenesulfonamide]"
6,> 10,"Cc1cc(S(=O)(=O)Nc2cn(C)c(-c3ccccc3)n2)c(C)cc1Cl [Example 170, 4-chloro-2,5-dimethyl-N-(1-methyl-2-phenyl-1H-imidazol-4-yl)benzenesulfonamide]"
7,> 10,"Cc1cc(S(=O)(=O)Nc2nc(-c3ccccc3)n(C)n2)c(C)cc1Cl [Example 180, 4-chloro-2,5-dimethyl-N-(1-methyl-5-phenyl-1H-1,2,4-triazol-3-yl)benzenesulfonamide]"
8,1,"Cc1cc(S(=O)(=O)Nc2cccc(-c3cc(C4CC4)[nH]n3)c2)c(C)cc1Cl [Example 64, 4-chloro-N-(3-(5-cyclopropyl-1H-pyrazol-3-yl)phenyl)-2,5-dimethylbenzenesulfonamide]"
9,> 100,"Cc1c(Cl)cccc1S(=O)(=O)Nc1csc(-c2ccccc2)n1 [Example 154, 3-chloro-2-methyl-N-(2-phenylthiazol-4-yl)benzenesulfonamide]"
10,1,"Cc1cc(-c2cccc(NS(=O)(=O)c3cc(C)c(Cl)cc3C)c2)n[nH]1 [Example 66, 4-chloro-2,5-dimethyl-N-(3-(5-methyl-1H-pyrazol-3-yl)phenyl)benzenesulfonamide]"
11,0.4,"Cc1cc(S(=O)(=O)Nc2csc(C(=O)N3CCC[C@H]3C)n2)c(C)cc1Cl [Example 174, (R)-4-chloro-2,5-dimethyl-N-(2-(2-methylpyrrolidine-1-carbonyl)thiazol-4-yl)benzenesulfonamide]"
12,0.5,"Cc1cc(S(=O)(=O)Nc2csc(-c3cnn(C)c3)n2)c(C)cc1Cl [Example 183, 4-chloro-2,5-dimethyl-N-(2-(1-methyl-1H-pyrazol-4-yl)thiazol-4-yl)benzenesulfonamide]"
13,> 100,"Cc1cc(S(=O)(=O)Nc2cccc(C(=O)N3CCN(C)CC3)c2)c(C)cc1Cl [Example 52, 4-chloro-2,5-dimethyl-N-(3-(4-methylpiperazine-1-carbonyl)phenyl)benzenesulfonamide]"
14,> 100,"O=S(=O)(Nc1cccc(-c2nccs2)c1)c1ccc(Cl)cc1 [Example 59, 4-chloro-N-(3-(thiazol-2-yl)phenyl)benzenesulfonamide]"
15,> 10,"Cc1cc(S(=O)(=O)Nc2cnn(-c3ccccc3)n2)c(C)cc1Cl [Example 171, 4-chloro-2,5-dimethyl-N-(2-phenyl-2H-1,2,3-triazol-4-yl)benzenesulfonamide]"
16,13,"Cc1cc(S(=O)(=O)Nc2cccc(C(=O)N[C@H](C)c3ccccc3)c2)c(C)cc1Cl [Example 48, (R)-3-((4-chloro-2,5-dimethylphenyl)sulfonamido)-N-(1-phenylethyl)benzamide]"

row,AC50 [µM],Structure (SMILES)
1,> 100,"Cc1cc(NS(=O)(=O)c2cc(C)ccc2C)cc(C(=O)N2CCCC[C@H]2C)c1 [Example 42, (R)-2,5-dimethyl-N-(3-methyl-5-(2-methylpiperidine-1-carbonyl)phenyl)benzenesulfonamide]"
2,> 100,"Cc1cc(S(=O)(=O)Nc2csc(C(=O)N(CC(N)=O)C3CCCC3)n2)c(C)cc1Cl [Example 177, N-(2-amino-2-oxoethyl)-4-((4-chloro-2,5-dimethylphenyl)sulfonamido)-N-cyclopentylthiazole-2-carboxamide]"
3,> 100,"Cc1ccccc1S(=O)(=O)Nc1cccc(C(=O)N2CCOC[C@@H]2C)c1 [Example 23, (S)-2-methyl-N-(3-(3-methylmorpholine-4-carbonyl)phenyl)benzenesulfonamide]"
4,1,"Cc1cc(S(=O)(=O)Nc2csc(-n3cccn3)n2)c(C)cc1Cl [Example 178, N-(2-(1H-pyrazol-1-yl)thiazol-4-yl)-4-chloro-2,5-dimethylbenzenesulfonamide]"
5,1,"Cc1cc(S(=O)(=O)Nc2csc(C(=O)N3CCC[C@@H]3C)n2)c(C)cc1Cl [Example 175, (S)-4-chloro-2,5-dimethyl-N-(2-(2-methylpyrrolidine-1-carbonyl)thiazol-4-yl)benzenesulfonamide]"
6,> 10,"Cc1cc(S(=O)(=O)Nc2csc(C(=O)N(C)CC(N)=O)n2)c(C)cc1Cl [Example 172, N-(2-amino-2-oxoethyl)-4-((4-chloro-2,5-dimethylphenyl)sulfonamido)-N-methylthiazole-2-carboxamide]"
7,50,"Cc1ccc(C)c(S(=O)(=O)Nc2cccc(C(=O)N(C)Cc3ccccc3)c2)c1 [Example 26, N-benzyl-3-((2,5-dimethylphenyl)sulfonamido)-N-methylbenzamide]"
8,2,"Cc1cc(S(=O)(=O)Nc2csc(-c3ccccn3)n2)c(C)cc1Cl [Example 173, 4-chloro-2,5-dimethyl-N-(2-(pyridin-2-yl)thiazol-4-yl)benzenesulfonamide]"
9,0.4,"Cc1cc(S(=O)(=O)Nc2csc(-c3ccncc3)n2)c(C)cc1Cl [Example 176, 4-chloro-2,5-dimethyl-N-(2-(pyridin-4-yl)thiazol-4-yl)benzenesulfonamide]"
10,56,"Cc1ccc(C)c(S(=O)(=O)Nc2cccc(C(=O)N(C)CC3CC3)c2)c1 [Example 33, N-(cyclopropylmethyl)-3-((2,5-dimethylphenyl)sulfonamido)-N-methylbenzamide]"
11,> 100,"Cc1ccc(C)c(S(=O)(=O)Nc2ccc(C(=O)N[C@@H](C)C3CC3)cc2)c1 [Example 39, (S)-N-(1-cyclopropylethyl)-4-((2,5-dimethylphenyl)sulfonamido)benzamide]"
12,56,"Cc1cc(S(=O)(=O)Nc2cccc(C(=O)N(C)CCO)c2)c(C)cc1Cl [Example 56, 3-((4-chloro-2,5-dimethylphenyl)sulfonamido)-N-(2-hydoxyethyl)-N-methylbenzamide]"
13,30,"Cc1cc(S(=O)(=O)Nc2cccc(C(=O)N(C)C(C)CO)c2)c(C)cc1Cl (single isomer, unassigned) [Example 15, 3-((4-chloro-2,5-dimethylphenyl)sulfonamido)-N-(1-hydroxypropan-2-yl)-N-methylbenzamide]"
14,51,"Cc1ccc(C)c(S(=O)(=O)Nc2ccc(C(=O)N3CCCC[C@H]3C)s2)c1 [Example 43, (R)-2,5-dimethyl-N-(5-(2-methylpiperidine-1-carbonyl)thiopheN-2-yl)benzenesulfonamide]"
15,21,"Cc1ccc(C)c(S(=O)(=O)Nc2cccc(C(=O)N3CCSCC3C(N)=O)c2)c1 (stereo not shown) [Example 41, 4-(3-((2,5-dimethylphenyl)sulfonamido)benzoyl) thiomorpholine-3-carboxamide]"
